The values below come from ChEMBL document CHEMBL1208748 (Bioorg Med Chem Lett, 2010).

Targets include Carbonic anhydrase 12 (Homo sapiens, UniProt O43570); Carbonic anhydrase 3 (Homo sapiens, UniProt P07451); Carbonic anhydrase 1 (Homo sapiens, UniProt P00915); Carbonic anhydrase 9 (Homo sapiens, UniProt Q16790); Carbonic anhydrase 7 (Homo sapiens, UniProt P43166).
The target in the next test is Carbonic anhydrase 13 (Homo sapiens, UniProt Q8N1Q1). The experiment in a line: Inhibition of human recombinant carbonic anhydrase 13 after 15 mins by stopped-flow CO2 hydration assay.
Chain of Carbonic anhydrase 13 (Q8N1Q1 whole entry): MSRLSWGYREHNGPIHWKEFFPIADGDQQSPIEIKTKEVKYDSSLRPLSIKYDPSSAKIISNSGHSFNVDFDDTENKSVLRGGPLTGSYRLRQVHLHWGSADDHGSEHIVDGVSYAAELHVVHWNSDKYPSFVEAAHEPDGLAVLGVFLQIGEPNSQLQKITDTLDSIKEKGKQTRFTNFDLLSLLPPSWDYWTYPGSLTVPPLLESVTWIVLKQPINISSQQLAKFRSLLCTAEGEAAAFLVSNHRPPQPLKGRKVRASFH
In test [1] the target is Carbonic anhydrase 5B, mitochondrial (Homo sapiens, UniProt Q9Y2D0).
Chain of Carbonic anhydrase 5B, mitochondrial (Q9Y2D0 whole entry): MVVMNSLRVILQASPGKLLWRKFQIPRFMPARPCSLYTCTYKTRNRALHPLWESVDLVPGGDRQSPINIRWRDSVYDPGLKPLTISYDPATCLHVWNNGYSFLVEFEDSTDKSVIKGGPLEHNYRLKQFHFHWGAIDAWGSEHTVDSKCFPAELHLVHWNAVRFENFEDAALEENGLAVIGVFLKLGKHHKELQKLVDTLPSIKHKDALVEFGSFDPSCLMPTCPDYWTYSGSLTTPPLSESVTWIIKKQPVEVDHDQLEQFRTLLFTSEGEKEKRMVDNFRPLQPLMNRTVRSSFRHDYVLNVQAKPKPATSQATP
Test [2] has as its target Carbonic anhydrase 5A, mitochondrial (Homo sapiens, UniProt P35218). The experiment in a line: Inhibition of human recombinant carbonic anhydrase 5a after 15 mins by stopped-flow CO2 hydration assay.
The next test deals with Carbonic anhydrase 14 (Homo sapiens, UniProt Q9ULX7). In words: Inhibition of human recombinant carbonic anhydrase 14 after 15 mins by stopped-flow CO2 hydration assay.
Chain of Carbonic anhydrase 14 (Q9ULX7 whole entry): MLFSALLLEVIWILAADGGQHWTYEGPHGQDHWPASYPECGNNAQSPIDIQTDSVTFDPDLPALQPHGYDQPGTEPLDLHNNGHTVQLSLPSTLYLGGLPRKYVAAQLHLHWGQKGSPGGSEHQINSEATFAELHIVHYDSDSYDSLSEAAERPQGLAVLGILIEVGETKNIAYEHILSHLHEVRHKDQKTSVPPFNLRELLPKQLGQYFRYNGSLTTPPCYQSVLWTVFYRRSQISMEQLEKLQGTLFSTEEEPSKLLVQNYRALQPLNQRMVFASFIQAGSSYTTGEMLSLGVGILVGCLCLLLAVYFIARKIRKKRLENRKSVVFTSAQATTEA
The target in a further test is T1, Carbonic anhydrase 15 (Mus musculus, UniProt Q99N23).
T1 sequence (Q99N23 whole entry): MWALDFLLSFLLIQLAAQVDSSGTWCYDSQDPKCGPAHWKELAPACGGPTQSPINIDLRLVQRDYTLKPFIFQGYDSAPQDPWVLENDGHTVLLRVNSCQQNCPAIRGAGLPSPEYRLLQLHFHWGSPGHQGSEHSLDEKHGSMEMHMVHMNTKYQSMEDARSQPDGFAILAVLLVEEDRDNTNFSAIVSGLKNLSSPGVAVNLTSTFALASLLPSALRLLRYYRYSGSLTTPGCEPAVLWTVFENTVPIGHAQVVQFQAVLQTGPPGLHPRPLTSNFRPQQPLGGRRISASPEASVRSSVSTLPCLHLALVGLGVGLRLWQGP

Chain of Carbonic anhydrase 12 (O43570 whole entry): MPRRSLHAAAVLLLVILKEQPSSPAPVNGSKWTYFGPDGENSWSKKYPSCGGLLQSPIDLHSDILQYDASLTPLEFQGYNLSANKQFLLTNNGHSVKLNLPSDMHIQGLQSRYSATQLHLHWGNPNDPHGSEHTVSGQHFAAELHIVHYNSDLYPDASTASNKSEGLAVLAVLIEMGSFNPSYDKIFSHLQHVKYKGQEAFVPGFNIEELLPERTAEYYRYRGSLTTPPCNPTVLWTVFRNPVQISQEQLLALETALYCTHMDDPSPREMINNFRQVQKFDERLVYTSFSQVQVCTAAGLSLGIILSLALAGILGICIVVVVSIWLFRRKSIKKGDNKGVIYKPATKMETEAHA
Chain of Carbonic anhydrase 3 (P07451 whole entry): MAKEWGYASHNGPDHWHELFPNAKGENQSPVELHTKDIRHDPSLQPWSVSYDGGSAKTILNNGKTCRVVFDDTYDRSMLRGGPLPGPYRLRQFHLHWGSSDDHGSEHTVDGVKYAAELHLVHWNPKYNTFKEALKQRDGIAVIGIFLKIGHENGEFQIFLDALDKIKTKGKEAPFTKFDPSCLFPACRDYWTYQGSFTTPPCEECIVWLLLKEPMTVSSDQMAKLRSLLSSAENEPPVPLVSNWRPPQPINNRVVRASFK
Chain of Carbonic anhydrase 7 (P43166 whole entry): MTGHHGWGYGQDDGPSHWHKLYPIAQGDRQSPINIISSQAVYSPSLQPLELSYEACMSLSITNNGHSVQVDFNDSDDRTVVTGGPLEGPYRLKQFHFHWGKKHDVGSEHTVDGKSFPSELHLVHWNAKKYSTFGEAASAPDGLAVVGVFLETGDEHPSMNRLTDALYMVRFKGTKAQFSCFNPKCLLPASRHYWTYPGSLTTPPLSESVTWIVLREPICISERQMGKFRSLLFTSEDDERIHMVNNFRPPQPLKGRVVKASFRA
Chain of Carbonic anhydrase 1 (P00915 whole entry): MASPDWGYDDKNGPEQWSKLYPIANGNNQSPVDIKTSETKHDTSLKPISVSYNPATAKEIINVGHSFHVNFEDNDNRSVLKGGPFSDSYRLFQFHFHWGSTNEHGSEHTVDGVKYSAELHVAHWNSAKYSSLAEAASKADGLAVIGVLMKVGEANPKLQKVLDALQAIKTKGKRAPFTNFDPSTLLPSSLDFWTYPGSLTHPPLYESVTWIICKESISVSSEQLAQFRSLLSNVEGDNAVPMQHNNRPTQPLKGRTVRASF
Chain of Carbonic anhydrase 5A, mitochondrial (P35218 whole entry): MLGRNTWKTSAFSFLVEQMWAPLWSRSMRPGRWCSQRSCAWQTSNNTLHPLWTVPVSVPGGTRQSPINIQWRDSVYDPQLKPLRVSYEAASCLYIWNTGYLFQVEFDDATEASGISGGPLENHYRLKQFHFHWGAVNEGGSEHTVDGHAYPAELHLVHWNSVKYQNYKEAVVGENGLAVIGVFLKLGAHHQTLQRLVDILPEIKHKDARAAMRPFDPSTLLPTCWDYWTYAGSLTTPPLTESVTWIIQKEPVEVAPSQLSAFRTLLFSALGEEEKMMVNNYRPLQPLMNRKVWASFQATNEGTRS

The term Ki denotes the equilibrium dissociation constant of an inhibitor or competing ligand from its target. In the case of `Nc1nnc(S(N)(=O)=O)s1`, the inhibition constant (Ki) is 34 nM at Carbonic anhydrase 12, 79 nM on Carbonic anhydrase 13 and 150000 nM at Carbonic anhydrase 3.

In the case of `Cc1ccc(-c2cc(C(F)(F)F)nn2-c2ccc(S(N)(=O)=O)cc2)cc1` [CELECOXIB], the Ki in test [1] is 93 nM; in test [2] it was 794 nM; at Carbonic anhydrase 14 it was 689 nM; at Carbonic anhydrase 13, 98 nM; at Carbonic anhydrase 3, 70000 nM.

Take `NS(=O)(=O)c1nnc(NC(=O)C23CC4CC(CC(C4)C2)C3)s1`: the inhibition constant Ki on Carbonic anhydrase 1 was 883 nM; on Carbonic anhydrase 12, 2.8 nM; on Carbonic anhydrase 15 it was 652 nM; on Carbonic anhydrase 3 it was 300000 nM; on Carbonic anhydrase 9, 6.4 nM; on Carbonic anhydrase 7, 35 nM.

As to `NS(=O)(=O)c1nnc(NC(=O)CC23CC4CC(CC(C4)C2)C3)s1`, the inhibition constant (Ki) is 362 nM at Carbonic anhydrase 1; 4.7 nM at Carbonic anhydrase 12; 719 nM at Carbonic anhydrase 15; 410000 nM on Carbonic anhydrase 3; 49.5 nM at Carbonic anhydrase 9; 48 nM at Carbonic anhydrase 7.

For `Nc1c(F)cc(S(=O)(=O)Nc2nnc(S(N)(=O)=O)s2)cc1Cl`, the results for the Ki at Carbonic anhydrase 12, on Carbonic anhydrase 15 and on Carbonic anhydrase 7 were 13 nM, 30 nM and 2.9 nM, respectively.

For `Cc1cc(C)[n+](CCc2ccc(S(N)(=O)=O)cc2)c(C)c1`, the inhibition constant Ki was 34 nM on Carbonic anhydrase 15 and 300000 nM at Carbonic anhydrase 3.
